From patent publication US8569267B2, “Tetracyclic tetrahydrofuran derivatives containing cyclic amine side chain” (Janssen Pharmaceutica, NV, priority 2005, dated 2013)

What was measured:
[1] = biological target: T1, human cloned 5-HT2C receptor, expressed in CHO cells (Homo sapiens, UniProt P28335); assay: In vitro binding affinity for 5-HT2C receptor ([3H]mesulergine radioligand binding); conditions: human cloned 5-HT2C receptor; for IC50: read-out: 5-HT2C pIC50 (converted)
T1 construct: expressed in transfected cells; host or cells: CHO cells
T1 sequence (P28335 33-458): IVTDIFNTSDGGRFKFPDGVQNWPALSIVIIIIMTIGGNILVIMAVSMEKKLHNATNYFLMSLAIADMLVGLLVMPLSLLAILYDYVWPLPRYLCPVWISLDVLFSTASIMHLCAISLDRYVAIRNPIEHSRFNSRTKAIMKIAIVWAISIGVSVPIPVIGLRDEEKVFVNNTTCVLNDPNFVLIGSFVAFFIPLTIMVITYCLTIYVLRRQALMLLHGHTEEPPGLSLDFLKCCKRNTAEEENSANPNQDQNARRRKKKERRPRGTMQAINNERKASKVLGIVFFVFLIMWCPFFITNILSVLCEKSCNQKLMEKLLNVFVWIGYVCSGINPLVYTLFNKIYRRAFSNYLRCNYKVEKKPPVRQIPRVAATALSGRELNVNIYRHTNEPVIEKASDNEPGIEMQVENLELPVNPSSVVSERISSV
Description: In Vitro Binding Affinity for 5-HT2A and 5-HT2C Receptors
The interaction of the compounds of Formula (I) with 5-HT2A and 5-HT2C receptors was assessed in in vitro radioligand binding experiments. […] During the incubation, the radioligands bind to the receptor. When equilibrium of binding is reached, the receptor bound radioactivity is separated from the non-bound radioactivity, and the receptor bound activity is counted. The interaction of the test compounds with the receptors is assessed in competition binding experiments. Various concentrations of the test compound are added to the incubation mixture containing the tissue preparation and the radioligand. Binding of the radioligand will be inhibited by the test compound in proportion to its binding affinity and its concentration.

[2] = biological target: T2, human Dopamine D2L receptor (Homo sapiens, UniProt P14416); assay: In vitro binding affinity for human D2L receptor ([3H]Spiperone binding); conditions: human D2L receptor-transfected CHO cell membranes; for IC50: read-out: D2L pIC50 (converted)
T2 construct: expressed in transfected cells; host or cells: CHO cells
Description: In Vitro Binding Affinity for Human D2L Receptor
Frozen membranes of human Dopamine D2L receptor-transfected CHO cells were thawed, briefly homogenised using an Ultra-Turrax T25 homogeniser and diluted in Tris-HCl assay buffer containing NaCl, CaCl2, MgCl2, KCl (50, 120, 2, 1, and 5 mM respectively, adjusted to pH 7.7 with HCl) to an appropriate protein concentration optimised for specific and non-specific binding. Radioligand [^3H]Spiperone (NEN, specific activity ˜70 Ci/mmol) was diluted in assay buffer at a concentration of 2 nmol/L. Prepared radioligand (50 μl), along with 50 μl of either the 10% DMSO control, Butaclamol (10^−6 mol/l final concentration), or compound of interest, was then incubated (30 min, 37° C.) with 400 μl of the prepared membrane solution. Membrane-bound activity was filtered through a Packard Filtermate harvester onto GF/B Unifilterplates and washed with ice-cold Tris-HCl buffer (50 mM; pH 7.7; 6×0.5 ml). Filters were allowed to dry before adding scintillation fluid and counting in a Topcount scintillation counter. Percentage specific bound and competition binding curves were calculated using S-Plus software (Insightful).

[3] = biological target: T3, NET (norepinephrine transporter) (Rattus norvegicus, UniProt Q63380); assay: In vitro determination of NET reuptake inhibition ([3H]Nixosetine binding, rat brain cortex); conditions: rat brain cortex; for IC50: read-out: NET pIC50 (converted)
T3 construct: Cortex from rat brain was collected and homogenised; from tissue; host or cells: rat brain cortex
Description: In Vitro Determination of NET Reuptake Inhibition
Cortex from rat brain was collected and homogenised using an Ultra-Turrax T25 and a Dual homogeniser in ice-cold homogenising buffer containing Tris, NaCl and KCl (50 mM, 120 mM and 5 mM, respectively, pH 7.4) prior to dilution to an appropriate protein concentration optimised for specific and non-specific binding. […] Membrane-bound activity was detected by filtration through a Packard Filtermate harvester onto GF/B Unifilterplates, washed with ice-cold Tris-HCl buffer, containing NaCl and KCl (50 mM, 120 mM and 4 mM; pH 7.4; 6×0.5 ml). Filters were allowed to dry for 24 h before adding scintillation fluid. Scintillation fluid was allowed to saturate filters for 24 h before counting in a Topcount scintillation counter. Percentage specific bound and competition binding curves were calculated using S-Plus software (Insightful).

T2 sequence (P14416 whole entry): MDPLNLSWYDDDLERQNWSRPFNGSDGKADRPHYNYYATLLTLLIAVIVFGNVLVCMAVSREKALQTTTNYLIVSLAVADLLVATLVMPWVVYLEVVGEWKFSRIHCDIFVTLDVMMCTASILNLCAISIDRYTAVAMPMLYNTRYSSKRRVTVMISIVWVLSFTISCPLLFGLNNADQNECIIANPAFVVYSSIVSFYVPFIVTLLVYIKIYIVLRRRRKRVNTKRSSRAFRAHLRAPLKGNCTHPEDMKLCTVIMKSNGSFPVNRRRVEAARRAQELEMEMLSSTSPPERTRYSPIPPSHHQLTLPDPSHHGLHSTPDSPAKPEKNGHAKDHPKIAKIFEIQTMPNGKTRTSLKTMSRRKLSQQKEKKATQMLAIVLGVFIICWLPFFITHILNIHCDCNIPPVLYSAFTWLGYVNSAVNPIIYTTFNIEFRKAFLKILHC
T3 sequence (Q63380 1-617): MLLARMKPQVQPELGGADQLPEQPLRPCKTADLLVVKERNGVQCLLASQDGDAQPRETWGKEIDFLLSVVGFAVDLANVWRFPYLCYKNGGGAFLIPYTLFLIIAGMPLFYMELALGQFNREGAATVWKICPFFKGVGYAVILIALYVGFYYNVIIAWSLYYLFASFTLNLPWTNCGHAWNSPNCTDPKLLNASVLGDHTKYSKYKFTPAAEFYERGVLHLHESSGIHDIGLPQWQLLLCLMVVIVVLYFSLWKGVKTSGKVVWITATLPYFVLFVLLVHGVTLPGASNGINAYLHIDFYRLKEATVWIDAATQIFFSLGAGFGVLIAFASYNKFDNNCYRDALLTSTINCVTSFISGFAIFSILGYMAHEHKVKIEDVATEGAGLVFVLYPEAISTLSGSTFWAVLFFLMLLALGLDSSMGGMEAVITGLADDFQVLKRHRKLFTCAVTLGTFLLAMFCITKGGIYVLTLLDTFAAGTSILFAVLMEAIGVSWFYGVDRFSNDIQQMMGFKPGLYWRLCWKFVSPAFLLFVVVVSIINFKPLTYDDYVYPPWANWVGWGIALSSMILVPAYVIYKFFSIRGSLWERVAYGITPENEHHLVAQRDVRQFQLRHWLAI

| SMILES | IC50 [1] [nM] | IC50 [2] [nM] | IC50 [3] [µM] | 5-HT2C pIC50 [1] | D2L pIC50 [2] | NET pIC50 [3] |
| --- | --- | --- | --- | --- | --- | --- |
| O=C(C1CCN(CC2CC3c4ccccc4Cc4ccc(F)cc4C3O2)CC1)N1CC=C(c2ccccc2)CC1 (stereo not drawn) [Compound 207] | 6.76 | 25.7 | 6.17 |  |  |  |
| O=C(Cc1ccc(Cl)cc1)NC1CCN(CC2CC3c4ccccc4Cc4ccc(F)cc4C3O2)CC1 (stereo not drawn) [Compound 239] | 22.9 | 49 | > 10 |  |  |  |
| O=C(NCc1cccc(I)c1)C1CCN(CC2CC3c4ccccc4Cc4ccc(F)cc4C3O2)CC1 (stereo not drawn) [Compound 196] | 5.01 | 14.1 | 2.75 |  |  |  |
| CC(C)c1ccccc1NC(=O)C1CCN(CC2CC3c4ccccc4Cc4ccc(F)cc4C3O2)CC1 (stereo not drawn) [Compound 185] | 10.7 | 15.5 | > 10 |  |  |  |
| O=C(O)C(=O)O.O[C@@H]1CCN(C[C@H]2C[C@@H]3c4ccccc4Cc4ccc(F)cc4[C@@H]3O2)C1 [Compound 2] |  |  |  | 9.58 | 7.86 | 6.34 |
| O=C(NC1CCN(CC2CC3c4ccccc4Cc4ccc(F)cc4C3O2)CC1)c1cccc(C(F)(F)F)c1 (stereo not drawn) [Compound 233] | 30.9 | 14.8 | 5.25 |  |  |  |
| CC1c2ccccc2C2CC(CN3CCC(O)C3)OC2c2cc(F)ccc21.O=C(O)C(=O)O (mixture of isomers) [Compound 45] |  |  |  | 8.66 | 6.46 | 7.33 |
| CC(C)(C)OC(=O)N1CCN(C(=O)C2CCN(CC3CC4c5ccccc5Cc5ccc(F)cc5C4O3)CC2)CC1 (stereo not drawn) [Compound 206] | 9.33 | 40.7 | 1.7 |  |  |  |
| Fc1ccc2c(c1)C1OC(CN3CCC(NC(=S)Nc4cccnc4)CC3)CC1c1ccccc1C2 (stereo not drawn) [Compound 254] | 20 | 12.3 | 3.47 |  |  |  |
| O=C(NC1CCN(CC2CC3c4ccccc4Cc4ccc(F)cc4C3O2)CC1)c1cccc(F)c1 (stereo not drawn) [Compound 231] | 10.7 | 1.86 | 8.51 |  |  |  |
| O=C(CSc1ccccc1)NC1CCN(CC2CC3c4ccccc4Cc4ccc(F)cc4C3O2)CC1 (stereo not drawn) [Compound 241] | 6.46 | 5.5 | 7.76 |  |  |  |
| O=C(NC1CCN(CC2CC3c4ccccc4Cc4ccc(F)cc4C3O2)CC1)c1ccccc1F (stereo not drawn) [Compound 232] | 9.77 | 4.79 | 4.07 |  |  |  |
| O=C(Nc1ccccc1Oc1ccccc1)NC1CCN(CC2CC3c4ccccc4Cc4ccc(F)cc4C3O2)CC1 (stereo not drawn) [Compound 250] | 20.4 | 37.2 | 3.89 |  |  |  |
| O=C(Nc1ccc2c(c1)CCC2)NC1CCN(CC2CC3c4ccccc4Cc4ccc(F)cc4C3O2)CC1 (stereo not drawn) [Compound 238] | 5.62 | 21.4 | 7.76 |  |  |  |
| COc1ccc(NC(=O)CC2CN(C[C@H]3C[C@@H]4c5ccccc5Cc5ccc(F)cc5[C@@H]4O3)CCO2)cc1 (stereo partly drawn) [Compound 139] | 24.5 | 56.2 | > 10 |  |  |  |
| COc1cc(C(=O)NC2CCN(CC3CC4c5ccccc5Cc5ccc(F)cc5C4O3)CC2)cc(OC)c1OC (stereo not drawn) [Compound 235] | 13.5 | 18.6 | 9.12 |  |  |  |
| CC(=O)N1CCC(C(=O)NC2CCN(CC3CC4c5ccccc5Cc5ccc(F)cc5C4O3)CC2)CC1 (stereo not drawn) [Compound 224] | 12.9 | 3.39 | > 10 |  |  |  |

The next lines start with results.

| IC50 [1] [nM] | IC50 [2] [nM] | IC50 [3] [µM] | SMILES | 5-HT2C pIC50 [1] | D2L pIC50 [2] | NET pIC50 [3] |
| --- | --- | --- | --- | --- | --- | --- |
| 3.24 | 6.76 | > 10 | CN(C)C(=O)NC1CCN(CC2CC3c4ccccc4Cc4ccc(F)cc4C3O2)CC1 (stereo not drawn) [Compound 243] |  |  |  |
| 4.17 | 17 | 3.8 | OCCC1CCCN(CC2CC3c4ccccc4Cc4ccc(F)cc4C3O2)C1 (mixture of isomers) [Compound 152] |  |  |  |
| 2.14 | 4.27 | 5.37 | O=C(NC1CCN(CC2CC3c4ccccc4Cc4ccc(F)cc4C3O2)CC1)C1CC1 (stereo not drawn) [Compound 220] |  |  |  |
| 6.17 | 10.2 | > 10 | COCCOC(=O)NC1CCN(CC2CC3c4ccccc4Cc4ccc(F)cc4C3O2)CC1 (stereo not drawn) [Compound 216] |  |  |  |
| 0.692 | 4.79 | > 10 | OC1CCN(C[C@H]2C[C@@H]3c4ccccc4Cc4ccc(F)cc4[C@@H]3O2)CC1 [Compound 144, [2R-(2α, 3aα, 12bβ)]1-(11-fluoro-3,3a,8,12b-tetrahydro-2H-1-oxa-dibenzo[e,h]azulen-2-ylmethyl)-piperidin-4-ol.oxalate (1:1)] |  |  |  |
| 1.23 | 1.35 | > 10 | OCC1CCN(CC2CC3c4ccccc4Cc4ccc(F)cc4C3O2)CC1 (stereo not drawn) [Compound 151] |  |  |  |
| 6.61 | 11.5 | 3.24 | COCCNC(=S)NC1CCN(CC2CC3c4ccccc4Cc4ccc(F)cc4C3O2)CC1 (stereo not drawn) [Compound 252] |  |  |  |
| 44.7 | 44.7 | 6.46 | NCCNC(=S)NC1CCN(CC2CC3c4ccccc4Cc4ccc(F)cc4C3O2)CC1 (stereo not drawn) [Compound 256] |  |  |  |
| 11.2 | 5.25 | 9.12 | O=C(NC1CCN(CC2CC3c4ccccc4Cc4ccc(F)cc4C3O2)CC1)c1ccccc1Cl (stereo not drawn) [Compound 227] |  |  |  |
| 0.912 | 16.2 | > 10 | OCC1CC2CN(C[C@H]3C[C@@H]4c5ccccc5Cc5ccc(F)cc5[C@@H]4O3)CCC2O1 (stereo partly drawn) [Compound 274, [2R-(2α, 3aα, 12bβ)]-(2′RS,3a′RS, 7a′RS)[5-(11-fluoro-3,3a,8,12b-tetrahydro-2H-1-oxa-dibenzo[e,h]azulen-2-ylmethyl)-octahydro-furo[3,2-c]pyridin-2-yl]-methanol.oxalate (1:1)] |  |  |  |
| 5.75 | 5.89 | > 10 | CCOC(=O)NC1CCN(CC2CC3c4ccccc4Cc4ccc(F)cc4C3O2)CC1 (stereo not drawn) [Compound 211] |  |  |  |
| 1.45 | 5.01 | 9.12 | O=C(NCc1ccco1)C1CCN(CC2CC3c4ccccc4Cc4ccc(F)cc4C3O2)CC1 (stereo not drawn) [Compound 194] |  |  |  |
| 7.59 | 2.88 | 5.5 | CCOC(=O)CC1CCN(CC2CC3c4ccccc4Cc4ccc(F)cc4C3O2)CC1 (stereo not drawn) [Compound 164, [2R-(2α, 3aα, 12bβ)][1-(11-fluoro-3,3a,8,12b-tetrahydro-2H-1-oxa-dibenzo[e,h]-azulen-2-ylmethyl)-piperidin-4-yl]-acetic acid ethyl ester.oxalate (1:1)] |  |  |  |
| 11 | 7.76 | 7.24 | Cn1cccc1C(=O)NC1CCN(CC2CC3c4ccccc4Cc4ccc(F)cc4C3O2)CC1 (stereo not drawn) [Compound 221] |  |  |  |
| 1.17 | 7.76 | > 10 | O=C(Nc1ccccc1F)C1CCN(CC2CC3c4ccccc4Cc4ccc(F)cc4C3O2)CC1 (stereo not drawn) [Compound 189] |  |  |  |
| 1.02 | 3.63 | > 10 | CCOC(=O)C1CCN(C[C@H]2C[C@@H]3c4ccccc4Cc4ccc(F)cc4[C@@H]3O2)CC1 [Compound 162] |  |  |  |
